Columns and labels:
[1] = target: MAP/microtubule affinity-regulating kinase 4 (Homo sapiens) (UniProt Q96L34); conditions: Compound concentration 1000.0 nM
[2] = target: Serine/threonine-protein kinase 38-like (Homo sapiens) (UniProt Q9Y2H1); conditions: Compound concentration 1000.0 nM
[3] = target: BMP-2-inducible protein kinase (Homo sapiens) (UniProt Q9NSY1); conditions: Compound concentration 1000.0 nM
[4] = system: Serine/threonine-protein kinase B-raf (Homo sapiens), P15056 [V600E]; conditions: Compound concentration 1000.0 nM
[5] = target: Serine/threonine-protein kinase 32C (Homo sapiens) (UniProt Q86UX6); conditions: Compound concentration 1000.0 nM
[6] = target: Maternal embryonic leucine zipper kinase (Homo sapiens) (UniProt Q14680); conditions: Compound concentration 1000.0 nM
[7] = target: Proto-oncogene tyrosine-protein kinase receptor Ret (Homo sapiens) (UniProt P07949); conditions: Compound concentration 1000.0 nM
[8] = target: Misshapen-like kinase 1 (Homo sapiens) (UniProt Q8N4C8); conditions: Compound concentration 1000.0 nM
[9] = target: Serine/threonine-protein kinase TNNI3K (Homo sapiens) (UniProt Q59H18); conditions: Compound concentration 1000.0 nM
Sequence of Serine/threonine-protein kinase TNNI3K (Homo sapiens) (Q59H18 whole entry): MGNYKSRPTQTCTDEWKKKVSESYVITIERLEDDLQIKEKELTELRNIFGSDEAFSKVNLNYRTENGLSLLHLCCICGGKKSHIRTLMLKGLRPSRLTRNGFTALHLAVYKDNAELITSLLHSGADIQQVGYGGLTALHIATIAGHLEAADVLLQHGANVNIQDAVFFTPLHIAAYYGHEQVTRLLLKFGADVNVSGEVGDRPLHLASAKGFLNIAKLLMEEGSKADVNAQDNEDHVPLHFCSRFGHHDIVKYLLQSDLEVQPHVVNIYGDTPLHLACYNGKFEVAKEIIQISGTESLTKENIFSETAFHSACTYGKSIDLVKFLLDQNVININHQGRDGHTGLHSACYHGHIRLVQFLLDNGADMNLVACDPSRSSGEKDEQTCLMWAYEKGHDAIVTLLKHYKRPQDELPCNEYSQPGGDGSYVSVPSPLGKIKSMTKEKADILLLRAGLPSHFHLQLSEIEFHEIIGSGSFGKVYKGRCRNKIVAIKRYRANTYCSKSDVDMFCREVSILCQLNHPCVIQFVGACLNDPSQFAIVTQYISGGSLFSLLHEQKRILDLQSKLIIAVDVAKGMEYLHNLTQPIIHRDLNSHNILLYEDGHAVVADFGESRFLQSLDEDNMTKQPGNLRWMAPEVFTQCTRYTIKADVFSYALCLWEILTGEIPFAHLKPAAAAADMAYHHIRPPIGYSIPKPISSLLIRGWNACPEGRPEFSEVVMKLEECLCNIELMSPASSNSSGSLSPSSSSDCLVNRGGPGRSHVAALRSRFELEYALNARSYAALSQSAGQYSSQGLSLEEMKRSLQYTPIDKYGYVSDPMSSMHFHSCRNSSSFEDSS

[10] = target: Receptor-interacting serine/threonine-protein kinase 2 (Homo sapiens) (UniProt O43353); conditions: Compound concentration 1000.0 nM
[11] = target: Interleukin-1 receptor-associated kinase 1 (Homo sapiens) (UniProt P51617); conditions: Compound concentration 1000.0 nM
[12] = target: Serine/threonine-protein kinase Chk2 (Homo sapiens) (UniProt O96017); conditions: Compound concentration 1000.0 nM
[13] = target: Citron Rho-interacting kinase (Homo sapiens) (UniProt O14578); conditions: Compound concentration 1000.0 nM
[14] = target: Serine/threonine-protein kinase 4 (Homo sapiens) (UniProt Q13043); conditions: Compound concentration 1000.0 nM
[15] = system: ALK tyrosine kinase receptor (Homo sapiens), Q9UM73 [L1196M]; conditions: Compound concentration 1000.0 nM
[16] = target: Mitogen-activated protein kinase 14 (Homo sapiens) (UniProt Q16539); conditions: Compound concentration 1000.0 nM
[17] = target: Protein kinase C delta type (Homo sapiens) (UniProt Q05655); conditions: Compound concentration 1000.0 nM
[18] = target: Serine/threonine-protein kinase N1 (Homo sapiens) (UniProt Q16512); conditions: Compound concentration 1000.0 nM
[19] = system: Phosphatidylinositol 4,5-bisphosphate 3-kinase catalytic subunit alpha isoform (Homo sapiens), P42336 [Q546K]; conditions: Compound concentration 1000.0 nM
[20] = target: Serine/threonine-protein kinase DCLK1 (Homo sapiens) (UniProt O15075); conditions: Compound concentration 1000.0 nM
[21] = target: Tyrosine-protein kinase receptor UFO (Homo sapiens) (UniProt P30530); conditions: Compound concentration 1000.0 nM
Sequence of Tyrosine-protein kinase receptor UFO (Homo sapiens) (P30530 whole entry): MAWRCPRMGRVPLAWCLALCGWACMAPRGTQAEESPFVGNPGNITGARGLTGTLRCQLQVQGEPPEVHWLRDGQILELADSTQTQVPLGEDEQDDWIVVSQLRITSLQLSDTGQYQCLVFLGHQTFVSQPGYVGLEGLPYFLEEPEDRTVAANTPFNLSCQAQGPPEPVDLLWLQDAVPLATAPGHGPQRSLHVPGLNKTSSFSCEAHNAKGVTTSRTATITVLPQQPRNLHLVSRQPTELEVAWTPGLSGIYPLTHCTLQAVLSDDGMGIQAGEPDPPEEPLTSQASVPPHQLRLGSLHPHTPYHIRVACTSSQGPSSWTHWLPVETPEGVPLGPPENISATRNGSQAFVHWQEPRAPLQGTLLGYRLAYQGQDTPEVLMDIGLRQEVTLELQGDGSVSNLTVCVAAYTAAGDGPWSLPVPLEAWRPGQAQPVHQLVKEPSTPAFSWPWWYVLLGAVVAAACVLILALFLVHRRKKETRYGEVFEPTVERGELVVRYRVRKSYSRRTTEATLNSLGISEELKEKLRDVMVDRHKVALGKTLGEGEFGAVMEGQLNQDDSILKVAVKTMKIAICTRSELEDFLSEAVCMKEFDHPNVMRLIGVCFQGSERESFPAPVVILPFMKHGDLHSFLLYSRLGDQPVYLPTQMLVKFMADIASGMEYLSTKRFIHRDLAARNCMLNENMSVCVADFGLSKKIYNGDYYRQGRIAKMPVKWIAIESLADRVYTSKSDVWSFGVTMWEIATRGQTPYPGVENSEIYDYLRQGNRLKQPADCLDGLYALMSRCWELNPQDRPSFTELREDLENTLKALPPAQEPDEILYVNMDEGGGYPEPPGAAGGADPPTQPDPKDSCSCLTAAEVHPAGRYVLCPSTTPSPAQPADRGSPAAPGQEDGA

[22] = target: Mitogen-activated protein kinase kinase kinase 7 (Homo sapiens) (UniProt O43318); conditions: Compound concentration 1000.0 nM
[23] = target: Aurora kinase A (Homo sapiens) (UniProt O14965); conditions: Compound concentration 1000.0 nM
[24] = target: Serine/threonine-protein kinase D1 (Homo sapiens) (UniProt Q15139); conditions: Compound concentration 1000.0 nM
[25] = target: Cyclin-dependent kinase 4 (Homo sapiens) (UniProt P11802); conditions: Compound concentration 1000.0 nM
[26] = target: Serine/threonine-protein kinase/endoribonuclease IRE1 (Homo sapiens) (UniProt O75460); conditions: Compound concentration 1000.0 nM
[27] = target: Ribosomal protein S6 kinase alpha-1 (Homo sapiens) (UniProt Q15418); conditions: Compound concentration 1000.0 nM
[28] = target: Receptor tyrosine-protein kinase erbB-2 (Homo sapiens) (UniProt P04626); conditions: Compound concentration 1000.0 nM
[29] = target: Ribosomal protein S6 kinase alpha-5 (Homo sapiens) (UniProt O75582); conditions: Compound concentration 1000.0 nM
Sequence of Ribosomal protein S6 kinase alpha-5 (Homo sapiens) (O75582 whole entry, looked up, canonical isoform): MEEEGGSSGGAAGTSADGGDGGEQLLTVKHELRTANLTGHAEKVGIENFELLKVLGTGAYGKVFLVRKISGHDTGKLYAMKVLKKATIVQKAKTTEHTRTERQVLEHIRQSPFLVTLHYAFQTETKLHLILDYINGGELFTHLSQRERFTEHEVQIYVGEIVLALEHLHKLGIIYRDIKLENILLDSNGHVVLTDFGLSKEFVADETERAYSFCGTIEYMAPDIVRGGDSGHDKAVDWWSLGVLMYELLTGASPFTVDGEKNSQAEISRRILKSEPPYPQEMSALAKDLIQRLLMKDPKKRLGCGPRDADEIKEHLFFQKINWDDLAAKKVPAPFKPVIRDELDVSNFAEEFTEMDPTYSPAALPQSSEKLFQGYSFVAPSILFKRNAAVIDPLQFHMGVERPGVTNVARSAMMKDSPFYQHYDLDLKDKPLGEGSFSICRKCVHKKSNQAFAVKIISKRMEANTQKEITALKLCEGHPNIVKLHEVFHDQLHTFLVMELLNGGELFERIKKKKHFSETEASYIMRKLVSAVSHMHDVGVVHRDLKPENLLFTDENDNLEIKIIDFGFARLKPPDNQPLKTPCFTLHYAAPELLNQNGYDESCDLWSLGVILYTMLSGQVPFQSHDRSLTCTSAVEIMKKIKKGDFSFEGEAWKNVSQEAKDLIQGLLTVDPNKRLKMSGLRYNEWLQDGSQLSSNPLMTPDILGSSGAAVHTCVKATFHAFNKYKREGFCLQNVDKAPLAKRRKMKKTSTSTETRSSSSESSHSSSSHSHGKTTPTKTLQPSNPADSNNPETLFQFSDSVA

[30] = target: Casein kinase I isoform gamma-1 (Homo sapiens) (UniProt Q9HCP0); conditions: Compound concentration 1000.0 nM
[31] = system: Tyrosine-protein kinase ABL1 (Homo sapiens), P00519 [Q252H]; conditions: Compound concentration 1000.0 nM
[32] = target: Phosphatidylinositol 4,5-bisphosphate 3-kinase catalytic subunit delta isoform (Homo sapiens) (UniProt O00329); conditions: Compound concentration 1000.0 nM
[33] = target: Serine/threonine-protein kinase PLK3 (Homo sapiens) (UniProt Q9H4B4); conditions: Compound concentration 1000.0 nM
[34] = target: Glycogen synthase kinase-3 beta (Homo sapiens) (UniProt P49841); conditions: Compound concentration 1000.0 nM
[35] = target: Myosin light chain kinase (Homo sapiens) (UniProt Q32MK0); conditions: Compound concentration 1000.0 nM
Sequence of Myosin light chain kinase (Homo sapiens) (Q32MK0 whole entry): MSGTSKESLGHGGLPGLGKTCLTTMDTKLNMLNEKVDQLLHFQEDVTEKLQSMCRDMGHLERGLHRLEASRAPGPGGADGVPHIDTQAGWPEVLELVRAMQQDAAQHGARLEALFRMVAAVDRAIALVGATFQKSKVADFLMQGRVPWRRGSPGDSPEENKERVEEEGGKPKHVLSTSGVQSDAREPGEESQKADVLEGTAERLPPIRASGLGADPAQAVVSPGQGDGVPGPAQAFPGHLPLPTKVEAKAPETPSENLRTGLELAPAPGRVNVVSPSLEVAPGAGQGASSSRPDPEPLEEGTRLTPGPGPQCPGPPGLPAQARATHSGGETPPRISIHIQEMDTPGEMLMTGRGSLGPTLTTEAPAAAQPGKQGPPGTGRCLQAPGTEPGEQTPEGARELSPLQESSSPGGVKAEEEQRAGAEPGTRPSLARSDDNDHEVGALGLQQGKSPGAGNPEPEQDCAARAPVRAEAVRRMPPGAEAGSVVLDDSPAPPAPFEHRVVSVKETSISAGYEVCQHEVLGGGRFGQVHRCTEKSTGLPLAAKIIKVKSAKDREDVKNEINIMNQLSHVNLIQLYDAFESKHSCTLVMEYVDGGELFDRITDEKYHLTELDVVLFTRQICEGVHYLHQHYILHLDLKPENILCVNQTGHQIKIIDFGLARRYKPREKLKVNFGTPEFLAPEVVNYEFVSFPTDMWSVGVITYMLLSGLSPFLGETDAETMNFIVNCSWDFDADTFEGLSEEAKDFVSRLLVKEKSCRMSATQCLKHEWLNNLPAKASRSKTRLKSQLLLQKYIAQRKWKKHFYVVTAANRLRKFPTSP

[36] = system: Tyrosine-protein kinase ABL1 (Homo sapiens), P00519 [H396P]; conditions: Compound concentration 1000.0 nM
[37] = target: Mitogen-activated protein kinase 6 (Homo sapiens) (UniProt Q16659); conditions: Compound concentration 1000.0 nM
[38] = target: Mitogen-activated protein kinase kinase kinase 14 (Homo sapiens) (UniProt Q99558); conditions: Compound concentration 1000.0 nM
[39] = target: Death-associated protein kinase 2 (Homo sapiens) (UniProt Q9UIK4); conditions: Compound concentration 1000.0 nM
[40] = target: Mitogen-activated protein kinase kinase kinase 4 (Homo sapiens) (UniProt Q9Y6R4); conditions: Compound concentration 1000.0 nM
[41] = target: Serine/threonine-protein kinase Sgk3 (Homo sapiens) (UniProt Q96BR1); conditions: Compound concentration 1000.0 nM
Sequence of Serine/threonine-protein kinase Sgk3 (Homo sapiens) (Q96BR1 whole entry): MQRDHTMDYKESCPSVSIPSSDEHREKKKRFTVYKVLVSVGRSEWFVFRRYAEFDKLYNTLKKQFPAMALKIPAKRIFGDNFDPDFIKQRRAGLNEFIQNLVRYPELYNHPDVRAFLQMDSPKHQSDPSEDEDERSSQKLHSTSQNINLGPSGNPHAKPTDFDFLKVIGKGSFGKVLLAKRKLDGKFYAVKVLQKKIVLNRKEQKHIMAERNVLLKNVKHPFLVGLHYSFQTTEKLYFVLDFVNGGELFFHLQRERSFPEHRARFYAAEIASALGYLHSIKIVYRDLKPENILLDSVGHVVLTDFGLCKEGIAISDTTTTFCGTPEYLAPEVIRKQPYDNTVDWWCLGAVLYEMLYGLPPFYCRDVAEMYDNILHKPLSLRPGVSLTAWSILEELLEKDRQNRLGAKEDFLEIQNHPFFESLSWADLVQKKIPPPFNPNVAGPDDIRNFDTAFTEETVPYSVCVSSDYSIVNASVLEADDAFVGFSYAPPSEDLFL

[42] = target: GABA-A receptor; anion channel (Rattus norvegicus) (UniProt O09028+P15431+P18506+P18508+P19969+P20236+P23574+P23576+P28471+P28473+P30191+P62813+P63079+P63138+Q91ZM7+Q9ES14); conditions: Compound concentration 10.0 uM
[43] = target: Mitogen-activated protein kinase kinase kinase 19 (Homo sapiens) (UniProt Q56UN5); conditions: Compound concentration 1000.0 nM
[44] = target: Phosphatidylinositol 3-kinase catalytic subunit type 3 (Homo sapiens) (UniProt Q8NEB9); conditions: Compound concentration 1000.0 nM

Sequence of BMP-2-inducible protein kinase (Homo sapiens) (Q9NSY1 whole entry, looked up): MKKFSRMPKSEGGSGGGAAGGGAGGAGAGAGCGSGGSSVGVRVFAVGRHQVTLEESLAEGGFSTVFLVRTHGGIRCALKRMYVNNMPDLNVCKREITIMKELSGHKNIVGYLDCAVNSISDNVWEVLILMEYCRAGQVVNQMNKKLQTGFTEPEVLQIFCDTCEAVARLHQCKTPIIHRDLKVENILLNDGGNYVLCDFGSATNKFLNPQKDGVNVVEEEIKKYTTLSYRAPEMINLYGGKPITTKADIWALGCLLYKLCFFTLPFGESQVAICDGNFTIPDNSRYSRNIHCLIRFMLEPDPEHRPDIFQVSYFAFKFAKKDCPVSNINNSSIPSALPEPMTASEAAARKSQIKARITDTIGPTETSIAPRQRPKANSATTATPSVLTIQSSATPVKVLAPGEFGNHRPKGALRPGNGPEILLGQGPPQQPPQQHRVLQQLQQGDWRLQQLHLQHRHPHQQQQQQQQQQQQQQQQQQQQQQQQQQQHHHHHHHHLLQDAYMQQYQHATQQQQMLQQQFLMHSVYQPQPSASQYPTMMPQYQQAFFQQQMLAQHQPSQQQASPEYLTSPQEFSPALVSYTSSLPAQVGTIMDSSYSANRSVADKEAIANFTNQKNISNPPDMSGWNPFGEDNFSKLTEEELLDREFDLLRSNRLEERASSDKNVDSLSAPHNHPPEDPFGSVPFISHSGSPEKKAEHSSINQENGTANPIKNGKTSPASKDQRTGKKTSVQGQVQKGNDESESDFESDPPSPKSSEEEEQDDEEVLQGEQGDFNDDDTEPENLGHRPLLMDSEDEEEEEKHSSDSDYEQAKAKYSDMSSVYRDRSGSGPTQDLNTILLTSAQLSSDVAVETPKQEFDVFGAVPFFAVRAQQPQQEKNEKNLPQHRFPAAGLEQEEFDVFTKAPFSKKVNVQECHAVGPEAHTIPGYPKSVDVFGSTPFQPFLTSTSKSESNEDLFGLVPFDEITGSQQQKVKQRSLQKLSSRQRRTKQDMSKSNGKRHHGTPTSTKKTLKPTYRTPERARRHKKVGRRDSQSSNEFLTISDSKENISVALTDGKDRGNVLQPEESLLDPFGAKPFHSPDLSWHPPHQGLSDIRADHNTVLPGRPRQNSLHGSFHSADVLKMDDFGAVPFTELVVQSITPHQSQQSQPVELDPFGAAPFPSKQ

Question: Which results are given for `NS(=O)(=O)c1cc(NC(=O)C2(c3ccccc3Cl)CC2)ccc1Oc1cccc(Cl)c1` [BAY-207]?
Answer: residual activity [1]: 82%; residual activity [2]: 81%; residual activity [3]: 74%; residual activity [4]: 74%; residual activity [5]: 100%; residual activity [6]: 96%; residual activity [7]: 84%; residual activity [8]: 86%; residual activity [9]: 72%; residual activity [10]: 93%; residual activity [11]: 79%; residual activity [12]: 100%; residual activity [13]: 78%; residual activity [14]: 73%; residual activity [15]: 85%; residual activity [16]: 100%; residual activity [17]: 89%; residual activity [18]: 100%; residual activity [19]: 84%; residual activity [20]: 68%; residual activity [21]: 89%; residual activity [22]: 98%; residual activity [23]: 100%; residual activity [24]: 65%; residual activity [25]: 95%; residual activity [26]: 61%; residual activity [27]: 100%; residual activity [28]: 49%; residual activity [29]: 100%; residual activity [30]: 90%; residual activity [31]: 58%; residual activity [32]: 99%; residual activity [33]: 86%; residual activity [34]: 100%; residual activity [35]: 89%; residual activity [36]: 81%; residual activity [37]: 100%; residual activity [38]: 100%; residual activity [39]: 100%; residual activity [40]: 94%; residual activity [41]: 90%; inhibition [42]: 3.19%; residual activity [43]: 70%; residual activity [44]: 89%

Question: With `NS(=O)(=O)c1cc(NC(=O)Cc2ccccc2)ccc1Oc1cccc(Cl)c1` [BAY-1797] as the compound, how does the residual activity [1] read?
Answer: The residual activity was 100%.

Question: And the residual activity [2]?
Answer: The residual activity was 100%.

Question: What about the residual activity [3] of the same compound?
Answer: Its residual activity is 94%.

Question: What about the residual activity [4] of the same compound?
Answer: Its residual activity is 89%.

Question: And the residual activity [5]?
Answer: Its residual activity is 100%.

Question: And the residual activity [6]?
Answer: The residual activity was 59%.

Question: And the residual activity [7]?
Answer: Its residual activity is 100%.

Question: And the residual activity [8]?
Answer: The residual activity was 90%.

Question: And the residual activity [9]?
Answer: Its residual activity is 91%.

Question: What about the residual activity [10] of the same compound?
Answer: Its residual activity is 94%.

Question: What about the residual activity [11] of the same compound?
Answer: The residual activity was 73%.

Question: And the residual activity [12]?
Answer: Its residual activity is 81%.

Question: And the residual activity [13]?
Answer: Its residual activity is 100%.

Question: And the residual activity [14]?
Answer: The residual activity was 86%.

Question: What about the residual activity [15] of the same compound?
Answer: Its residual activity is 62%.

Question: What about the residual activity [16] of the same compound?
Answer: The residual activity was 100%.

Question: What about the residual activity [17] of the same compound?
Answer: The residual activity was 100%.

Question: What about the residual activity [18] of the same compound?
Answer: The residual activity was 100%.

Question: And the residual activity [19]?
Answer: The residual activity was 92%.

Question: What about the residual activity [20] of the same compound?
Answer: Its residual activity is 86%.

Question: And the residual activity [21]?
Answer: Its residual activity is 93%.

Question: And the residual activity [22]?
Answer: The residual activity was 75%.

Question: And the residual activity [23]?
Answer: The residual activity was 69%.

Question: What about the residual activity [24] of the same compound?
Answer: Its residual activity is 96%.

Question: And the residual activity [25]?
Answer: The residual activity was 74%.

Question: What about the residual activity [26] of the same compound?
Answer: Its residual activity is 73%.

Question: And the residual activity [27]?
Answer: The residual activity was 75%.

Question: What about the residual activity [28] of the same compound?
Answer: Its residual activity is 87%.

Question: What about the residual activity [29] of the same compound?
Answer: The residual activity was 71%.

Question: What about the residual activity [30] of the same compound?
Answer: The residual activity was 89%.

Question: What about the residual activity [31] of the same compound?
Answer: The residual activity was 100%.

Question: And the residual activity [32]?
Answer: The residual activity was 93%.

Question: And the residual activity [33]?
Answer: Its residual activity is 87%.

Question: What about the residual activity [34] of the same compound?
Answer: The residual activity was 80%.

Question: And the residual activity [35]?
Answer: Its residual activity is 89%.

Question: And the residual activity [36]?
Answer: Its residual activity is 97%.

Question: What about the residual activity [37] of the same compound?
Answer: The residual activity was 98%.

Question: And the residual activity [38]?
Answer: The residual activity was 67%.

Question: And the residual activity [39]?
Answer: The residual activity was 90%.

Question: What about the residual activity [40] of the same compound?
Answer: Its residual activity is 100%.

Question: What about the residual activity [41] of the same compound?
Answer: The residual activity was 83%.

Question: What about the inhibition [42] of the same compound?
Answer: Its inhibition is 0.73%.

Question: What about the residual activity [43] of the same compound?
Answer: The residual activity was 78%.

Question: And the residual activity [44]?
Answer: Its residual activity is 100%.

From ChEMBL document CHEMBL4507265 (2021)
